Laboratory results published in US20250098679A1, “HERBICIDAL PYRIDONE DERIVATIVES” (SYNGENTA CROP PROTECTION AG, priority 2021, published 2025).

Tests used:
Assay type in all cases: in vivo
Details in all cases: evaluated after 13 days
Zea mays (ZEAMX) [1] = assay: Pre-emergence Test, Zea mays (ZEAMX)
Setaria faberi (SETFA) [2] = assay: Pre-emergence Test, Setaria faberi (SETFA)
[3] = system: Amaranthus palmeri (AMAPA); assay: Pre-emergence Test, Amaranthus palmeri (AMAPA)
[4] = system: Amaranthus retoflexus (AMARE); assay: Post-emergence Test, Amaranthus retoflexus (AMARE); design: key to percentage damage caused to the plant, AMARE (five-point scale): 5=81-100%, 4=61-80%, 3=41-60%, 2=21-40%, 1=0-20% damage
In short: (§1)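 Scores are percentage plant damage on a 1–5 scale (1=0-20%, 2=21-40%, 3=41-60%, 4=61-80%, 5=81-100%), read 13 days after treatment. Pots received a spray at 1000 g/ha unless otherwise stated, formulated in acetone/water (50:50) containing 0.5% Tween 20.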

Setaria faberi (SETFA) [5] = assay: Post-emergence Test, Setaria faberi (SETFA); design: key to percentage damage caused to the plant, SETFA (five-point scale): 5=81-100%, 4=61-80%, 3=41-60%, 2=21-40%, 1=0-20% damage
In short: as §1

[6] = system: Echinochloa crus-galli (ECHCG); assay: Pre-emergence Test, Echinochloa crus-galli (ECHCG)
[7] = system: Ipomoea hederacea (IPOHE); assay: Pre-emergence Test, Ipomoea hederacea (IPOHE)
Zea mays (ZEAMX) [8] = assay: Post-emergence Test, Zea mays (ZEAMX); design: key to percentage damage caused to the plant, ZEAMX (five-point scale): 5=81-100%, 4=61-80%, 3=41-60%, 2=21-40%, 1=0-20% damage
In short: as §1

[9] = system: Amaranthus palmeri (AMAPA); assay: Post-emergence Test, Amaranthus palmeri (AMAPA); design: key: 5=81-100%, 4=61-80%, 3=41-60%, 2=21-40%, 1=0-20% damage
In short: as §1

[10] = system: Echinochloa crus-galli (ECHCG); assay: Post-emergence Test, Echinochloa crus-galli (ECHCG); design: key to percentage damage caused to the plant, ECHCG (five-point scale): 5=81-100%, 4=61-80%, 3=41-60%, 2=21-40%, 1=0-20% damage
In short: as §1

[11] = system: Amaranthus retoflexus (AMARE); assay: Pre-emergence Test, Amaranthus retoflexus (AMARE)
[12] = system: Ipomoea hederacea (IPOHE); assay: Post-emergence Test, Ipomoea hederacea (IPOHE); design: key to percentage damage caused to the plant, IPOHE (five-point scale): 5=81-100%, 4=61-80%, 3=41-60%, 2=21-40%, 1=0-20% damage
In short: as §1

Compound	Pre-emergence Test ZEAMX, percentage damage caused to the plant (five-point scale) (Zea mays (ZEAMX) [1]; 250 g/Ha (*))	Pre-emergence Test ZEAMX, percentage damage caused to the plant (five-point scale) (Zea mays (ZEAMX) [1]; 1000 g/ha)	Pre-emergence Test SETFA, percentage damage caused to the plant (five-point scale) (Setaria faberi (SETFA) [2]; 250 g/Ha (*))	Pre-emergence Test SETFA, percentage damage caused to the plant (five-point scale) (Setaria faberi (SETFA) [2]; 1000 g/ha)	Pre-emergence Test AMAPA, percentage damage caused to the plant (five-point scale) ([3]; 250 g/Ha (*))	Pre-emergence Test AMAPA, percentage damage caused to the plant (five-point scale) ([3]; 1000 g/ha)	percentage damage caused to the plant, AMARE (five-point scale) ([4]; 250 g/Ha)	percentage damage caused to the plant, AMARE (five-point scale) ([4]; 1000 g/ha)	percentage damage caused to the plant, SETFA (five-point scale) (Setaria faberi (SETFA) [5]; 250 g/Ha)	percentage damage caused to the plant, SETFA (five-point scale) (Setaria faberi (SETFA) [5]; 1000 g/ha)	Pre-emergence Test ECHCG, percentage damage caused to the plant (five-point scale) ([6]; 250 g/Ha (*))	Pre-emergence Test ECHCG, percentage damage caused to the plant (five-point scale) ([6]; 1000 g/ha)	Pre-emergence Test IPOHE, percentage damage caused to the plant (five-point scale) ([7]; 250 g/Ha (*))	Pre-emergence Test IPOHE, percentage damage caused to the plant (five-point scale) ([7]; 1000 g/ha)	percentage damage caused to the plant, ZEAMX (five-point scale) (Zea mays (ZEAMX) [8]; 250 g/Ha)	percentage damage caused to the plant, ZEAMX (five-point scale) (Zea mays (ZEAMX) [8]; 1000 g/ha)	percentage damage caused to the plant, AMAPA (five-point scale) ([9]; 1000 g/ha)	percentage damage caused to the plant, ECHCG (five-point scale) ([10]; 1000 g/ha)	Pre-emergence Test AMARE, percentage damage caused to the plant (five-point scale) ([11]; 1000 g/ha)	percentage damage caused to the plant, IPOHE (five-point scale) ([12]; 1000 g/ha)	also measured
CCOC(=O)c1c(-c2ccc(Cl)c(Cl)c2)n(CC)c(Cn2ccc(Cl)n2)cc1=O [Compound 3, ethyl 6-[(3-chloropyrazol-1-yl)methyl]-2-(3,4-dichlorophenyl)-1-ethyl-4-oxo-pyridine-3-carboxylate]	0	0	1 (1=0-20%)	5 (5=81-100%)	0	0	1 (1=0-20%)	1 (1=0-20%)	2 (2=21-40%)	3 (3=41-60%)	1 (1=0-20%)	4 (4=61-80%)	0	0	0	2 (2=21-40%)	2 (2=21-40%)	3 (3=41-60%)	1 (1=0-20%)	2 (2=21-40%)	percentage damage caused to the plant, AMAPA (five-point scale) ([9]; 250 g/Ha): 1 (1=0-20%); percentage damage caused to the plant, ECHCG (five-point scale) ([10]; 250 g/Ha): 1 (1=0-20%); Pre-emergence Test AMARE, percentage damage caused to the plant (five-point scale) ([11]; 250 g/Ha (*)): 0; percentage damage caused to the plant, IPOHE (five-point scale) ([12]; 250 g/Ha): 4 (4=61-80%)
Cn1c(Cn2ccc(C(F)(F)F)n2)cc(=O)c(C(=O)O)c1-c1ccc(Cl)c(Cl)c1 [Compound 33, 2-(3,4-dichlorophenyl)-1-methyl-4-oxo-6-[[3-(trifluoromethyl)pyrazol-1-yl]methyl]pyridine-3-carboxylic acid]		0		5 (5=81-100%)		3 (3=41-60%)	1 (1=0-20%)	3 (3=41-60%)	3 (3=41-60%)	4 (4=61-80%)		5 (5=81-100%)		0	1 (1=0-20%)	2 (2=21-40%)	2 (2=21-40%)	4 (4=61-80%)	0	3 (3=41-60%)	percentage damage caused to the plant, AMAPA (five-point scale) ([9]; 250 g/Ha): 1 (1=0-20%); percentage damage caused to the plant, ECHCG (five-point scale) ([10]; 250 g/Ha): 3 (3=41-60%); percentage damage caused to the plant, IPOHE (five-point scale) ([12]; 250 g/Ha): 4 (4=61-80%)
CCn1c(Cn2ccnn2)cc(=O)c(C(=O)O)c1-c1ccc(Cl)c(Cl)c1 [Compound 45, 2-(3,4-dichlorophenyl)-1-ethyl-4-oxo-6-(triazol-1-ylmethyl)pyridine-3-carboxylic acid]		0		1 (1=0-20%)		1 (1=0-20%)		0		1 (1=0-20%)		4 (4=61-80%)		0		0	1 (1=0-20%)	1 (1=0-20%)	0	0	
CCn1c(Cn2ccc(Cl)n2)cc(=O)c(C(=O)O)c1-c1ccc(Cl)c(Cl)c1 [Compound 4, 6-[(3-chloropyrazol-1-yl)methyl]-2-(3,4-dichlorophenyl)-1-ethyl-4-oxo-pyridine-3-carboxylic acid]	1 (1=0-20%)	3 (3=41-60%)	5 (5=81-100%)	5 (5=81-100%)	0	1 (1=0-20%)	3 (3=41-60%)	2 (2=21-40%)	4 (4=61-80%)	4 (4=61-80%)	5 (5=81-100%)	5 (5=81-100%)	2 (2=21-40%)	3 (3=41-60%)	2 (2=21-40%)	3 (3=41-60%)	4 (4=61-80%)	4 (4=61-80%)	2 (2=21-40%)	4 (4=61-80%)	percentage damage caused to the plant, AMAPA (five-point scale) ([9]; 250 g/Ha): 3 (3=41-60%); percentage damage caused to the plant, ECHCG (five-point scale) ([10]; 250 g/Ha): 4 (4=61-80%); Pre-emergence Test AMARE, percentage damage caused to the plant (five-point scale) ([11]; 250 g/Ha (*)): 0
CCn1c(Cn2cnc(Cl)n2)cc(=O)c(C(=O)O)c1-c1ccc(Cl)c(Cl)c1 [Compound 5, 6-[(3-chloro-1,2,4-triazol-1-yl)methyl]-2-(3,4-dichlorophenyl)-1-ethyl-4-oxo-pyridine-3-carboxylic acid]	0	0	2 (2=21-40%)	3 (3=41-60%)	0	2 (2=21-40%)		1 (1=0-20%)		4 (4=61-80%)	3 (3=41-60%)	4 (4=61-80%)	0	0		2 (2=21-40%)	1 (1=0-20%)	1 (1=0-20%)	0	1 (1=0-20%)	Pre-emergence Test AMARE, percentage damage caused to the plant (five-point scale) ([11]; 250 g/Ha (*)): 0
